Laboratory results published in US9833497B2, “Human originated EGF domain proteins and use of the same” (CHENGDU SOURCEBIO LIMITED-LIABILITY COMPANY, priority 2013, dated 2017).

Tests used:
Format in all cases: cell-based
Proteus vulgaris = test: MIC against Gram-negative bacteria: Proteus vulgaris; conditions: for MIC (μg/mL) P. vulgaris / MIC: 10 h cultivation at 37° C., P. vulgaris
How it was run: (§1)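 Bacteria grown in LB at 37° C to McFarland 0.5, resuspended and seeded at 5×10^5 CFU/mL in 96-well plates. Purified human EGF-domain proteins two-fold serially diluted, triplicate wells; cultured at 37° C, shaking 175 rpm. MIC = lowest protein concentration with no growth.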

Enterobacter cloacae = test: MIC against Gram-negative bacteria: Enterobacter cloacae; conditions: for MIC (μg/mL) E. cloacae / MIC: 10 h cultivation at 37° C., E. cloacae
How it was run: as §1

Pseudomonas aeruginosa = test: MIC against Gram-negative bacteria: Pseudomonas aeruginosa; conditions: for MIC (μg/mL) P. aeruginosa / MIC: 10 h cultivation at 37° C., P. aeruginosa
How it was run: as §1

Klebsiella pneumonia = test: MIC against Gram-negative bacteria: Klebsiella pneumonia; conditions: for MIC (μg/mL) K. pneumonia / MIC: 10 h cultivation at 37° C., K. pneumonia
How it was run: as §1

E. coli BL21 = test: MIC against Gram-negative bacteria: E. coli BL21; conditions: for MIC (μg/mL) E. coli BL21 / MIC: 10 h cultivation at 37° C., E. coli BL21
How it was run: as §1

Serratia marcescens = test: MIC against Gram-negative bacteria: Serratia marcescens; conditions: for MIC (μg/mL) S. marcescens / MIC: 10 h cultivation at 37° C., S. marcescens
How it was run: as §1

Citrobacter diversus = test: MIC against Gram-negative bacteria: Citrobacter diversus; conditions: for MIC (μg/mL) C. diversus / MIC: 10 h cultivation at 37° C., C. diversus
How it was run: as §1

Proteus mirabilis = test: MIC against Gram-negative bacteria: Proteus mirabilis; conditions: for MIC (μg/mL) P. mirabilis / MIC: 10 h cultivation at 37° C., P. mirabilis
How it was run: as §1

E. coli DH5α = test: Antibacterial activity: MIC and growth curve against E. coli DH5α in 96-well plate; conditions: minimal inhibitory concentration against E. coli DH5α; 96-well plate, 5×10^5 CFU/mL, 37° C., judged after 8 h
How it was run: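 MIC taken as lowest protein level with no bacterial growth, tracked by A600 every 30 min during 37 °C, 175 rpm culture. Two-fold protein series 50-12.5 μg/mL final, triplicate wells, against 5×10^5 CFU/mL of LB-washed mid-log cells.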

Moraxella catarrhalis = test: MIC against Gram-negative bacteria: Moraxella catarrhalis; conditions: for MIC (μg/mL) M. catarrhalis / MIC: 10 h cultivation at 37° C., M. catarrhalis
How it was run: as §1

Aeromonas hydrophila = test: MIC against Gram-negative bacteria: Aeromonas hydrophila; conditions: for MIC (μg/mL) A. hydrophila / MIC: 10 h cultivation at 37° C., A. hydrophila
How it was run: as §1

[1] = 96-well plate, 5×10^5 CFU/mL, 37° C., 10 h

Substance	MIC (E. coli DH5α)	MIC (Proteus vulgaris)	MIC (Enterobacter cloacae)	MIC (Pseudomonas aeruginosa)	MIC (Klebsiella pneumonia)	MIC (E. coli BL21)	MIC (Serratia marcescens)	MIC (Citrobacter diversus)	MIC (Proteus mirabilis)	MIC (Moraxella catarrhalis)	MIC (Aeromonas hydrophila)	also measured
PRT161 (KVDPCASSPCQNNGTCYVDGVHFTCNCSPGFTGPTCA; listed as Homo sapiens)	12.5 µg/mL											MIC (μg/mL) P. vulgaris (Proteus vulgaris; 5×10^5 CFU/mL): 50 µg/mL; MIC (μg/mL) E. cloacae (Enterobacter cloacae; 5×10^5 CFU/mL): 25 µg/mL; MIC (μg/mL) P. aeruginosa (Pseudomonas aeruginosa; 5×10^5 CFU/mL): 25 µg/mL; MIC (μg/mL) K. pneumonia (Klebsiella pneumonia; 5×10^5 CFU/mL): 12.5 µg/mL; MIC (μg/mL) E. coli BL21 (E. coli BL21; 5×10^5 CFU/mL): 12.5 µg/mL; MIC (μg/mL) S. marcescens (Serratia marcescens; 5×10^5 CFU/mL): 25 µg/mL; MIC (μg/mL) C. diversus (Citrobacter diversus; 5×10^5 CFU/mL): 25 µg/mL; MIC (μg/mL) P. mirabilis (Proteus mirabilis; 5×10^5 CFU/mL): 25 µg/mL; MIC (μg/mL) M. catarrhalis (Moraxella catarrhalis; 5×10^5 CFU/mL): 12.5 µg/mL; MIC (μg/mL) A. hydrophila (Aeromonas hydrophila; 5×10^5 CFU/mL): 50 µg/mL
PRT930 (NFDDCASNPCIHGICMDGINRYSCVCSPGFTGQRCN; listed as Homo sapiens)	50 µg/mL	12.5 µg/mL	12.5 µg/mL	25 µg/mL	50 µg/mL	12.5 µg/mL	50 µg/mL	25 µg/mL	25 µg/mL	50 µg/mL	25 µg/mL	
PRT981 (DINECRSGACHAAHTRDCLQDPGGGFRCLCHAGFSGPRCQ; listed as Homo sapiens)	25 µg/mL	50 µg/mL	50 µg/mL	50 µg/mL	12.5 µg/mL	12.5 µg/mL	12.5 µg/mL	25 µg/mL	12.5 µg/mL	25 µg/mL	12.5 µg/mL	
PRT487 (SLCDLQPDFCLNDGKCDIMPGHGAICRCRVGENWWYRGKHCE; listed as Homo sapiens)	12.5 µg/mL											MIC against P. vulgaris (Proteus vulgaris; [1]): 50 µg/mL; MIC against E. cloacae (Enterobacter cloacae; [1]): 12.5 µg/mL; MIC against P. aeruginosa (Pseudomonas aeruginosa; [1]): 12.5 µg/mL; MIC against K. pneumonia (Klebsiella pneumonia; [1]): 25 µg/mL; MIC against E. coli BL21 (E. coli BL21; [1]): 25 µg/mL; MIC against S. marcescens (Serratia marcescens; [1]): 12.5 µg/mL; MIC against C. diversus (Citrobacter diversus; [1]): 12.5 µg/mL; MIC against P. mirabilis (Proteus mirabilis; [1]): 12.5 µg/mL; MIC against M. catarrhalis (Moraxella catarrhalis; [1]): 25 µg/mL; MIC against A. hydrophila (Aeromonas hydrophila; [1]): 25 µg/mL
PRT1028 (DENECATGFHRCGPNSVCINLPGSYRCECRSGYEFADDRHTCI; listed as Homo sapiens)	12.5 µg/mL	25 µg/mL	25 µg/mL	25 µg/mL	50 µg/mL	50 µg/mL	50 µg/mL	12.5 µg/mL	50 µg/mL	25 µg/mL	25 µg/mL	
PRT1000 (ELGGCISAPCAHGGTCYPQPSGYNCTCPTGYTGPTCS; listed as Homo sapiens)	50 µg/mL	25 µg/mL	12.5 µg/mL	50 µg/mL	25 µg/mL	12.5 µg/mL	50 µg/mL	50 µg/mL	12.5 µg/mL	25 µg/mL	25 µg/mL	
PRT232 (DIDECRQDPSTCGPNSICTNALGSYSCGCIAGFHPNPEGSQKDGNFSCQ; listed as Homo sapiens)	25 µg/mL											MIC (μg/mL) P. vulgaris (Proteus vulgaris; 5×10^5 CFU/mL): 12.5 µg/mL; MIC (μg/mL) E. cloacae (Enterobacter cloacae; 5×10^5 CFU/mL): 25 µg/mL; MIC (μg/mL) P. aeruginosa (Pseudomonas aeruginosa; 5×10^5 CFU/mL): 25 µg/mL; MIC (μg/mL) K. pneumonia (Klebsiella pneumonia; 5×10^5 CFU/mL): 12.5 µg/mL; MIC (μg/mL) E. coli BL21 (E. coli BL21; 5×10^5 CFU/mL): 12.5 µg/mL; MIC (μg/mL) S. marcescens (Serratia marcescens; 5×10^5 CFU/mL): 25 µg/mL; MIC (μg/mL) C. diversus (Citrobacter diversus; 5×10^5 CFU/mL): 25 µg/mL; MIC (μg/mL) P. mirabilis (Proteus mirabilis; 5×10^5 CFU/mL): 25 µg/mL; MIC (μg/mL) M. catarrhalis (Moraxella catarrhalis; 5×10^5 CFU/mL): 12.5 µg/mL; MIC (μg/mL) A. hydrophila (Aeromonas hydrophila; 5×10^5 CFU/mL): 12.5 µg/mL
